Experiments:
[1] = Cytotoxicity activity against the KB cell culture at less than 10 uM; assay type: functional; settings: Homo sapiens, read-out: ED50 (the source's name)
[2] = system: L1210; assay: Inhibition against the proliferation of L1210 leukemia; assay type: functional, cell-based; settings: Mus musculus
[3] = system: L1210; assay: Mitotic index (MI); assay type: functional, Mus musculus
[4] = system: L1210; assay: Percent increase in life span at 40 mg/kg on a single dose schedule against L1210 leukemia; assay type: functional; settings: Mus musculus

| SMILES | EC50 [1] | IC50 [2] | MI [3] | ILS at 40 mg/kg [4] |
| --- | --- | --- | --- | --- |
| CCOC(=O)Nc1cc(Nc2ccccc2)c2[nH]cnc2n1 | 9.5 µM |  |  |  |
| CCOC(=O)Nc1cc(NC(c2ccccc2)c2ccccc2)c2[nH]cnc2n1 |  | 0.37 µM | 1.15 µM | 59% |

Source: ChEMBL document CHEMBL1123607, “Synthesis of potential anticancer agents: imidazo[4,5-c]pyridines and imidazo[4,5-b]pyridines” (J Med Chem, 1987)
